The text below walks through data of publication PMC7748245, “Identification and Optimization of a Series of 8-Hydroxy Naphthyridines with Potent In Vitro Antileishmanial Activity: Initial SAR and Assessment of In Vivo Activity” (Journal of Medicinal Chemistry, 2020).

In brackets after ≈: the same amount, converted by molar mass. Where two headings read alike, the source gives them in different places.

A short description of data set [1]: Mouse liver microsomal intrinsic clearance. The class given is in vitro ADME. To be noted: for Cli (mouse liver microsomal intrinsic clearance): mouse liver microsomes; for Cli (mouse, ml/min/g): supplement sheet. Here is the method:
(§1) These assays were conducted as previously described.[23]

Data set [2] in a line: Chrom Log D pH7.4. To be noted: for chromatographic logD / ChromLogDpH7.4: pH 7.4. It is filed as physicochemical. The protocol: This assay was conducted as previously described.[11]
Data set [3] deals with L. donovani amastigotes. In words: Intramacrophage L. donovani assay (Ld InMac). To be noted: for IC50: Leishmania donovani, read-out: LdInMac pIC50 (converted); for IC50 / LdInMac pIC50: supplement sheet; for Ld InMac (pEC50): L. donovani amastigotes in THP-1 cells, 96 h compound exposure. The class given is cell-based, Leishmania donovani. The protocol:
(§2) This assay was conducted as previously described,[8] except for compound exposure time, which was 96 h instead of 72 h.

For data set [4], the system named is THP-1 cells. Briefly: THP-1 host cell toxicity readout of the intramacrophage assay. The class given is cell-based, human. Conditions: for IC50: Homo sapiens, THP-1, read-out: THP1 pIC50 (converted); for IC50 / THP1 pIC50: supplement sheet. Here is the method: as §2
The nature of data set [5]: Kinetic aqueous solubility. It is filed as physicochemical. Conditions: for solubility kinetic: read-out: Aq Solubility (kinetic aqueous solubility). Here is the method:
as §1

Data set [6] has as its system cell health (mitochondrial integrity). Briefly: GSK eXP: phenotypic cell health assay. It is filed as cell-based. To be noted: GSK eXP panel; read-out: pIC50 in phenotypic cell health assay (converted). From the text: (§3) First, the compounds which were poorly tolerated in mice, 28 and 34, were screened against a panel of >30 receptors with known links to in vivo toxicity (GSK-enhanced cross-screen panel (eXP)).[18] […] From this, it was not clear whether the effects seen in the receptor screen were related to the observed in vivo toxicity.

The target in data set [7] is T1, monoamine oxidase A (Homo sapiens, UniProt P21397).
T1 sequence (P21397 1-527): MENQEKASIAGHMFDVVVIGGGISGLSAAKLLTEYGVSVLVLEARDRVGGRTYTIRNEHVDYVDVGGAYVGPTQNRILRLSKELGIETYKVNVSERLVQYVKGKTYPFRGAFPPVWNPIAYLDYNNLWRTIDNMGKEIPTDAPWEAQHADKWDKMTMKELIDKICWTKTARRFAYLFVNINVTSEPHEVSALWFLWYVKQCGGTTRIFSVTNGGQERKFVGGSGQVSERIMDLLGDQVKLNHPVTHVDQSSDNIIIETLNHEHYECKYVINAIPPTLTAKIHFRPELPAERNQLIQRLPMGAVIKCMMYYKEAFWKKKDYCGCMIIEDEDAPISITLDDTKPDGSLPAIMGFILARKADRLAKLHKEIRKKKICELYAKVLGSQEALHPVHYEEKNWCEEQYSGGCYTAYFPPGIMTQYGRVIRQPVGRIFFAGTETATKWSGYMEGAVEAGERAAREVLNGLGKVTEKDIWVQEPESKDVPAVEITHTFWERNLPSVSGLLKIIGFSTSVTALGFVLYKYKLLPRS
In words: GSK enhanced cross-screen panel (eXP): monoamine oxidase A. It is filed as biochemical. Conditions: read-out: pIC50 against monoamine oxidase A (converted).
From the text: as §3

Data set [8] can be described thus: Mouse PK study 50 mg/kg ip (metabolites, tolerability). The class given is in vivo. The protocol: Since 7 itself was metabolically unstable (Cli = 10 mg/mL/g), we became interested in transferring the SAR from the triazole subseries (e.g., 16) to investigate its impact on metabolic stability, with a particular focus on glucuronidation. To this end, we synthesized 26 (Table 5) as a direct analogue of triazole 16.
Figure 3 PK profile of 26, showing levels of parent, glucuronide adduct, major hydroxylated metabolite, and other minor metabolites. Data are based on two replicates, with error bars representing the range of the data from the two runs. Blood/water (30 μL, 1:2) were collected following 50 mg/kg ip administration to Balb C mice at prescribed time points; 90 μL of acetonitrile (ACN) was then added to each sample and the samples were centrifuged for 5 min at 7000 rpm; 90 μL of supernatant was removed and added to 50 μL of Milli-Q water before ultrahigh-performance liquid chromatography–quadrupole time-of-flight (UPLC Q-TOF) analysis.
We synthesized a set of benzyl amides, where 4-methoxy analogue 27 and α-methyl-4-fluoro analogue 28 both gave very encouraging profiles, meeting progression criteria in terms of potency, metabolic stability, and clearance. […] Due to its impressive in vitro potency, we selected 28 for progression into an in vivo PK study.
We noted that a related compound from Merck, L-870,810 (30),[17] was reported as a clinical candidate targeting HIV integrase, which progressed as far as phase II clinical trials. […] Also, introducing substituents into the 5-naphthyridyl position had been a successful strategy for improving metabolic stability and potency in the triazole subseries. We therefore investigated a range of 5-substituted naphthyridyl analogues (Table 5). THP-amine 31 and morpholine 32 lost potency compared to parent compound 7, so we switched attention back to 5-phenylnaphthyridines. […] Further combinations of nonaromatic amides with differently substituted 5-phenylnaphthyridines were synthesized, and while changing the phenyl substituent gave flat SAR and no advantage over previous compounds, exploration of the amide led to 34 with a trans-4-methoxycyclopropylamide. Compound 34 gave a good balance of potency, solubility, and microsomal stability and was therefore selected for a mouse PK study.

The subject of data set [9] is Leishmania donovani. Briefly: VL mouse in vivo efficacy model (liver parasite burden, LDU). Here is the method: (§4) Because of having higher metabolic stability (in mouse liver microsomes) and lower Chrom Log D, compound 16 was progressed into a VL in vivo efficacy study, carried out in our previously described VL mouse model.[7] […] Parasite load was determined in the livers of animals 3 days after cessation of treatment, and parasite burden was expressed in Leishman Donovan units (LDUs, the mean number of amastigotes per liver cell × mg weight of liver). The blood exposure of compound 16 was also determined in dosed animals on days 1 and 5 to better understand the PK/pharmacodynamics (PD) relationship of the series. According to our project criteria, a compound needs to reduce parasite burden by >70% before being considered suitable for progression to lead-optimization, while a reduction of >95% would be considered suitable for a preclinical development candidate.[12]
In vivo studies were carried out as previously described.[12]

The format of data set [10] is in vitro ADME, mouse. Here is the method: As a means of measuring glucuronidation in vitro, 16 was assessed in a mouse liver hepatocyte assay.
For data set [11] the following is noted: mouse, in vivo. Here is the method:
as §4, with “candidate.[12] In the study, miltefosine behaved as expected, reducing parasite levels by >99% at 30 mg/kg qd. After twice daily ip dosing at 50 mg/kg, compound 16 reduced parasite burden in mouse liver by 46%. This provided an early proof of concept for this series but fell short of our target of >70% parasite reduction.” for “candidate.[12]”

A word on the solubility: it is the concentration that dissolves in the medium under given conditions. Low values mean a poorly soluble substance, high ones a readily soluble substance. The term solubility (kinetic) denotes the concentration staying in solution when a stock, usually in DMSO, is diluted into the medium. In the case of `CC(NC(=O)c1ncc2cccnc2c1O)c1ccc(F)cc1` (stereo not shown) [Compound 28, N-(1-(4-Fluorophenyl)ethyl)-8-hydroxy-1,6-naphthyridine-7-carboxamide], in data set [1], the “Cli (mouse liver microsomal intrinsic clearance)” value is 3.7 mL/min/g. Moreover, the “Cli (mouse, ml/min/g)” value in data set [1] amounted to 3.7 mL/min/g. The chromatographic logD in data set [2] (chromatographic (HPLC retention) system, supplement sheet, read-out: ChromLogD) is 5.1; in [2] (chromatographic system (Chrom Log D), read-out: ChromLogDpH7.4), 5.1. For the same molecule, the IC50 is 0.158 µM in [3], 5.01 µM in [4], 12.6 µM in data set [6] and 3.98 µM in data set [7]. Also, in data set [4] (human THP-1 host cells, read-out: THP-1 (pEC50) (converted)), the EC50 is 5.01 µM. The same molecule had a solubility in data set [5] (aqueous medium (not further specified), supplement sheet) greater than 250 µg/mL. In addition, the kinetic solubility in data set [5] was greater than 250 µM. The “time to symptoms requiring termination” value in [8] (mouse) is reported as no more than 3.5 h. The “tolerability in mouse PK study” value in data set [8] (mouse) is “proved to be toxic”.
Turning to “7-(3-Methyl-1H-1,2,4-triazol-5-yl)-5-(2-(trifluoromethyl)phenyl)-1,6-naphthyridin-8-ol [Compound 15]”, in data set [1], the “Cli (mouse liver microsomal intrinsic clearance)” value came to 1.4 mL/min/g and the “Cli (mouse, ml/min/g)” value was 1.4 mL/min/g. This molecule came in with a ChromLogDpH7.4 in [2] of 4.3. Also, the ChromLogD in data set [2] (supplement sheet) is given as 4.3. Also, in [3], the “Ld InMac (pEC50)” value came out at 7.0 and the “LdInMac pIC50” value is 7. The “THP-1 (pEC50)” value in data set [4] (human THP-1 host cells) was less than 4.3. Moreover, the “THP1 pIC50” value in data set [4] is reported as less than 4.3. Also, in [5], the kinetic solubility is greater than 250 µM.
In the case of `CNC(=O)c1nc(-c2ccccc2OC)c2cccnc2c1O` [Compound 26, 8-Hydroxy-5-(2-methoxyphenyl)-N-methyl-1,6-naphthyridine-7-carboxamide], the IC50 was 10 µM in [3] and 39.8 µM in [4]. Moreover, the “parent remaining in blood” value in data set [8] (Balb C mice, 8 h post-dose) is recorded as “significant quantities of parent were still present 8 h post-dose”. The “in vivo glucuronidation / metabolites” value in data set [8] (Balb C mice, blood) is listed as “little evidence of glucuronidation”.
As to `Cc1n[nH]c(-c2nc(NCc3ccc(Cl)cc3)c3cccnc3c2O)n1` [Compound 10, 5-((4-Chlorobenzyl)amino)-7-(3-methyl-1H-1,2,4-triazol-5-yl)-1,6-naphthyridin-8-ol], in data set [1], the “Cli (mouse liver microsomal intrinsic clearance)” value was 3.4 mL/min/g and the “Cli (mouse, ml/min/g)” value was 3.4 mL/min/g. This molecule returned a ChromLogDpH7.4 in [2] of 4.4. Also, the ChromLogD in [2] (supplement sheet) came out at 4.4. In data set [3], the “LdInMac pIC50” value came to 5.8. Besides, in [4] (human THP-1 host cells), the “THP-1 (pEC50)” value was less than 4.3. Further, the “THP1 pIC50” value in [4] is less than 4.3. Besides, the kinetic solubility in data set [5] was found to be 219 µM (≈ 80.3 µg/mL).
Consider “5-(Dimethylamino)-7-(3-methyl-1H-1,2,4-triazol-5-yl)-1,6-naphthyridin-8-ol [Compound 9]”, for which, in data set [1], the “Cli (mouse liver microsomal intrinsic clearance)” value turned out to be 14 mL/min/g and the “Cli (mouse, ml/min/g)” value amounted to 14 mL/min/g. In data set [2], this molecule gave a ChromLogDpH7.4 of -0.6. The ChromLogD in data set [2] (supplement sheet) is -0.6. The “LdInMac pIC50” value in data set [3] is 4.8. Besides, the “THP-1 (pEC50)” value in data set [4] (human THP-1 host cells) is recorded as less than 4.3. In addition, in data set [4], the “THP1 pIC50” value is reported as less than 4.3. Besides, in [5], the kinetic solubility is listed as greater than 250 µM.
By Tmax is commonly meant the time at which the peak concentration occurs. As for `COc1ccccc1-c1nc(-c2nc(C)n[nH]2)c(O)c2ncccc12` [Compound 16, 5-(2-Methoxyphenyl)-7-(3-methyl-1H-1,2,4-triazol-5-yl)-1,6-naphthyridin-8-ol], the “reduction of parasite burden in mouse liver” value in data set [9] (50 mg/kg ip twice daily, 5 days) was 46%. Besides, in data set [9] (supplement sheet), the “VL mouse efficacy model Reduction in parasite levels %” value came out at 46%. Moreover, in data set [1], the “Cli (mouse liver microsomal intrinsic clearance)” value came out at 0.8 mL/min/g and the “Cli (mouse, ml/min/g)” value was 0.8 mL/min/g. Moreover, the ChromLogDpH7.4 in [2] is 3.2. In addition, in data set [2] (supplement sheet), the ChromLogD was determined as 3.2. Besides, in data set [3], the “Ld InMac (pEC50)” value is reported as 6.2 and the “LdInMac pIC50” value was determined as 6.2. Moreover, the “THP-1 (pEC50)” value in data set [4] (human THP-1 host cells) is recorded as less than 4.3. Moreover, the “THP1 pIC50” value in data set [4] is reported as less than 4.3. Besides, the solubility (kinetic) in [5] is greater than 250 µM. The “glucuronide adduct observed in hepatocytes” value in [10] was “negligible amounts of the glucuronide adduct”. For the same molecule, the “clearance in mouse hepatocytes” value in [10] (mouse, hepatocytes) stood at 1.4 mL/min/g. In addition, the Tmax in data set [11] turned out to be 30 min. Besides, in data set [11] (ip, 50 mg/kg), the Tmax is 30 min, the “glucuronidated adducts in blood samples” value is “presence of glucuronidated adducts” and the “time unbound blood concentration exceeds EC99” value is “only during the first hour post-dose”.
`Cc1n[nH]c(-c2nc(N3CCOCC3)c3cccnc3c2O)n1` [Compound 11, 7-(3-Methyl-1H-1,2,4-triazol-5-yl)-5-morpholino-1,6-naphthyridin-8-ol]: in data set [1], the “Cli (mouse liver microsomal intrinsic clearance)” value amounted to 3.1 mL/min/g and the “Cli (mouse, ml/min/g)” value is 3.1 mL/min/g. Moreover, the ChromLogDpH7.4 in data set [2] was 1.8. Also, the ChromLogD in data set [2] (supplement sheet) stood at 1.8. Further, the “LdInMac pIC50” value in [3] is 5. The “THP-1 (pEC50)” value in data set [4] (human THP-1 host cells) is reported as less than 4.3. In addition, in data set [4], the “THP1 pIC50” value is reported as less than 4.3. Besides, the kinetic solubility in data set [5] was greater than 250 µM.
